For assay [1], the system named is streptozotocin-induced diabetic mice. Briefly: STZ diabetes model. It counts as in vivo, C57BL/6 female mice. As to the method: In order to look at the ability of Compound X mobilized stem cells to mediate tissue regeneration in vivo subcutaneous injections of 250 μg/kg of Compound X were compared with the ability of Compound X treated bone marrow cells to regenerate pancreas in a streptozoticin-induced diabetic model. Streptozotocin (STZ) is an antibiotic that preferentially kills the insulin secreting beta cells in pancreas. STZ-induced diabetes is a widely used model of pancreatic insufficiency.
Streptozotocin was dissolved and diluted into citric acid buffer (pH 4.5) immediately before injections. Drinking water and food were removed for 6 hours from 8-week old C57BL/6 female mice (Charles River) before mice were given a single intraperitoneal dose of 150 mg/kg STZ (Day −4). Blood for glucose determination was obtained from the tail vein four days post STZ. Blood glucose was measured by using an Elite glucometer (Bayer). Mice were considered diabetic if their blood glucose was >300 mg/dL. Mice showing >300 mg/dL blood glucose were randomized and divided into 5 groups of 10 mice (day 0). […]
After 96 hours of expansion, cells were harvested and processed for fluorescence activated cell sorting (FACS). […] Stained cells were excited with laser 2 (488 nm) and fluorescence emission was detected using the following optical filters, FL-3 (PerCP-Cy5.5) 695/BP40, FL-2 (phycoerythrin) 585/BP42 and FL-1 (FITC) 530/BP30. […]

Assay [2] relates to full-thickness cutaneous wounds. Briefly: Excisional wound healing model in db/db mice. As to conditions: i.v. 5 mg/kg daily for 4 days, Day 4. It counts as in vivo.
Assay [3] deals with CFU-GEMM progenitor cells. In words: Mobilization of CFU-GEMM in diabetic db/db mice. It counts as in vivo.
Assay [4] deals with full-thickness cutaneous wounds. Briefly: Excisional wound healing model in db/db mice. In kind it is in vivo. Also on record: Wound area measurements, Day 14: unit not given here. As to conditions: for Wound healing rate: individual mice; for Wound healing rate / Wound area measurements, Day 14 / Wound area, Percent of original size: 5 mg/kg; for Wound area measurements, Day 14 / Wound area, Percent of original size: individual wounds. As to the method: The average time to wound closure between db/db mice and non-diabetic C57BL6 mice was compared in a pilot experiment. Paired 6-mm full-thickness cutaneous wounds were made on the dorsa of mice after depilation with a sterile Miltex biopsy punch (VWR #21909-144). To prevent wound contraction during the healing process, 0.5 g/mL polyisobutyl methacrylate (Sigma #445754) in toluene (Sigma #244511) was applied over wounds 24 hours after wounding. After methacrylate hardened, a transparent dressing (Tagaderm, Lab Safety Supply #53379) was placed over wounds. Two groups of mice (5 mice per group) received intravenous injections of either Vehicle or Compound X (5 mg/kg) starting on day one post wounding and continuing daily for four consecutive days at Zeitgeber time 4 (ZT4), 4 hr after onset of light to time mobilization of stem cells with circadian oscillations (Frenette et. al. 2008).
Digital photographs of the wounds were taken on days 0, 7, 10 and 14. Wound areas were measured by manually tracing the border of unhealed area and quantified as a percent area of the original wound size. The size of the traced area was calculated automatically using the Image J (NIH) analysis program. The following calculation was used to determine the wound healing rate: (Area of original wound−Area of remaining wound)÷Area of original wound×100. […]
In the next experiment, 2 groups of db/db mice (6 mice per group) received paired 6-mm full-thickness cutaneous wounds. Mice then received intravenous injections of either Vehicle or Compound X (5 mg/kg) starting on day one post wounding and continuing daily for four consecutive days at ZT4. Wounds were monitored until complete closure in control group on day 21. To limit wound contraction during the healing process, a donut shaped silicone splint was centered on the wound and glued (cyanoacrylate adhesive) to the skin.
Ten mice were treated per group with 3 mice from each group being sacrificed for histology at day 10 post-wounding. Wound closure in the Compound X treated group was mostly achieved by the 14th day, while control wounds were closed between days 18-21 post-wounding. […] This was similar to data generated in previous experiments.

The mark [5] stands for this setting: i.v. 5 mg/kg daily for 4 days, Day 7.
[6] abbreviates: i.v. 5 mg/kg daily for 4 days, Day 10.
[7] abbreviates: second experiment, i.v. 5 mg/kg daily for 4 days, 14 days post-wounding.

“And” between values parts separate entries of the source, which are not always exact repeats. Equal entries are not always repeated. No end group written: not given here. Some results are limits rather than exact numbers.

With “FPHFDLSHGSAQV [Compound X, tridecapeptide that acts on stem cells]”, the “Survival of STZ treated mice” value in assay [1] (s.c. 250 μg/kg for 5 consecutive days for 3 weeks, STZ 150 mg/kg) was 100%. In addition, the “mice with substantial weight loss” value in assay [1] (s.c. 250 μg/kg stem cell mobilizing doses) is recorded as “No mice”. The entries for the “Wound healing rate, Average” value in assay [2], in assay [4] (setting [5]) and in assay [4] (setting [6]) were 5.14%, 14.22% and 38.68%, respectively. Besides, the Wound healing rate in assay [2] (individual mice, 5 mg/kg) is 3.89% and 4.69% and 2.42% and 8.09% and 6.62%; in assay [4] (setting [5]) it was 5.14% and 6.40% and 7.85% and 8.83% and 42.89%; in assay [4] (setting [6]) it was 17.47% and 13.96% and 65.36% and 17.51% and 79.10%. In addition, the “increase of CFU-GEMM number in peripheral blood vs Vehicle or 250 ug/kg” value in assay [3] (intravenous 5 mg/kg, one-hour post injection) was greater than 3 times. Besides, the “mobilization of progenitor cells into the peripheral blood” value in assay [3] (subcutaneous, doses as high as 5 mg/kg) is on record as “failed to mobilize”. This sequence also registered a wound closure in assay [4] (i.v. 5 mg/kg daily for 4 days, ten days after wounding) of 39%. Also, the “Wound area measurements, Day 14” value in assay [4] (second experiment (6 mice per group, silicone splint), i.v. 5 mg/kg daily for 4 days) is 5865 and 19152 and 50090 and 21199 and 49486 and 3603 and 24952 and 59032 and 74676 and 52782 and 11094 and 58870; in assay [4] (third experiment (ten mice per group), i.v. 5 mg/kg) it was 4104 and 24930 and 972 and 100098 and 7440 and 2808 and 324 and 78 and 180 and 21924 and 53715 and 22554 and 20406 and 168663. Besides, the “Wound area, Percent of original size, Average” value in assay [4] (setting [7]) is reported as 8.05%. For the same sequence, the “Wound area, Percent of original size” value is 1.11% and 5.19% and 10.08% and 7.02% and 10.48% and 0.82% and 4.45% and 12.48% and 14.28% and 13.38% and 2.48% and 14.93% in assay [4] (setting [7]); 0.83% and 5.59% and 0.19% and 18.81% and 1.56% and 0.61% and 0.06% and 0.02% and 0.03% and 4.11% and 10.3% and 5.11% and 5.24% and 29.82% in assay [4] (third experiment, i.v. 5 mg/kg, 14 days post-wounding). Also, in assay [4] (third experiment, i.v. 5 mg/kg), the “wounds closed by day 14 (95%-100% closure)” value is on record as 11 of 14. The “time to wound closure” value in assay [4] (third experiment, i.v. 5 mg/kg, control closed between days 18-21) is no more than 14 days.
